One compound from paper PMC9975698, “Hyperoside alleviates toxicity of β-amyloid via endoplasmic reticulum-mitochondrial calcium signal transduction cascade in APP/PS1 double transgenic Alzheimer's disease mice” (Redox Biology, 2023) can be followed below.

pKd: −log10 of the molar value.

For one data set, the target named is T1, Aβ aggregates (Homo sapiens, UniProt P05067).
T1 construct: purchased DGpeptites, Hangzhou, CHINA
As to the kind of experiment: Biolayer interferometry (BLI) analysis. Type of data set: binding. On the procedure:
200 μL of solution containing 200 μg of the Aβ peptide was incubated at 37 °C for 5 days. EZ-Link NHS-LC-LC-Biotin (Thermo Scientific, USA) was dissolved in DMSO to a concentration of 10 mM. Aβ aggregates was biotinylated in a 1:0.5 M ratio of biotin reagent and incubated for 30 min at room temperature before being added to a 96-well plate (Greiner Bio-One, PN:655,209). Biotinylation was ascertained by loading the mixture onto super streptavidin (SSA) capacity tips (ForteìBIO, CA, USA) and detected by the FortéBIO Octet Red instrument. Additionally, SSA biosensors were pre-wetted with PBS for the recording of baselines. Successful biotinylated Aβ aggregates solution was collected and immobilized onto SSA tips overnight at 4 °C. HYP dissolved in DMSO was diluted to an appropriate concentration with PBS to a final 200 μL/well volume. Control wells were added with an equal amount of DMSO. All experiments consisted of repeated cycles of four significant steps: wash (300 s), baseline (120 s), association (120 s), and dissociation (120 s). The association, dissociation plot, and kinetic constants were analyzed with ForteìBIO data analysis software.
On the technique in general: Biolayer interferometry detects binding as a change in optical thickness at a sensor tip.

The subject of the next data set is APP. In words: Real-time quantitative PCR of APP mRNA in HT22 cells. It counts as cell-based. The note with it: HT22 cells after HYP treatment. On the procedure: RNA was extracted from the HT22 cell using FavorPrep™ Blood/Cultured Cell Total RNA Purification Mini Kit (Favorgen Biotech Corp.). RNA concentration was determined using the NanoDrop 2000c Spectrophotometer (Thermo Scientific). 1 μg of total RNA was used to reverse transcribe to its corresponding cDNA by using the Transcriptor Universal cDNA Master mix (Roche, USA). Quantitative PCR was then performed with the addition of PowerUp™ SYBR® Green Master Mix (Applied Biosystems) using the ViiA™ 7 Real-Time PCR System (Applied Biosystems). Specific primers (Tech Dragon Ltd., Hong Kong) were designed by employing ThermoFisher Scientific's online OligoPerfect™ Designer software and then verified with NCBI's Primer‐BLAST software to confirm specific recognition of the target genes. Gene expression levels were normalized to actin (control) and analyzed using the ΔΔCT method. Three independent experiments with three replicates per group were analyzed for each primer.

The next data set deals with APP and APP-β. In words: Western blot of APP and APP-β in HT22 cells. It counts as cell-based. On the procedure: After HYP treatment, the cells were lysed with RIPA. Protein concentrations were determined by Bio-Rad protein assay (Bio-Rad Laboratories, CA, USA). After electrophoretic separation, the gels were blotted and stained with primary antibodies. Binding of antibodies was visualized with peroxidase-coupled secondary antibodies using ECL Western Blotting detection reagents (Invitrogen, Scotland, UK). Band intensities were quantified using ImageJ software. Data were obtained from three independent experiments.
Background: In western blotting, separated proteins are transferred to a membrane and probed.

The nature of the next data set: Solubility in water. Type of data set: physicochemical.
The next data set has as its system APP/PS1 mice. In words: Rotarod test. Type of data set: in vivo. The note with it: HYP nasal, every 3 days, 8 weeks. On the procedure:
All animal care and experimental procedures were performed in accordance with the “Institutional Animal Care and User Committee Guidelines” of the Macau University of Science and Technology. APP/PSEN1 (APP/PS1) mice (N000175) were purchased from the Nanjing Institute of Biomedical Sciences, Nanjing University, China, weighing 25 ± 5 g. The animals were housed in a temperature-controlled room with a 12 h light/dark cycle and given ad libitum food and water. Male mice were randomly divided into the following 6 experimental groups. (a) wild-type group (n = 6), (b) APP/PS1 group (n = 6), (c) HYP (20 mg/kg group) (n = 7), (d) HYP (40 mg/kg) group (n = 8), (e) HYP (80 mg/kg) group (n = 8) and (f) memantine (MEM) (10 mg/kg) positive control group (n = 8). HYP was dissolved in the solvent containing 10% DMSO, 40% PEG300 and 5% Tween-80 in PBS, and administrated via nasal injection for every 3 days with a volume of 0.5 μL/g of body weight for 8 consecutive weeks. The rotarod test was used to monitor motor coordination. The test consisted of placing the animal on a rotating rod with a rotational speed of 25 rpm (Yuyan, Shanghai, China) until the animal fell to the ground and the movement time was recorded. The test was performed three times with an interval of 300 s, and the mean of the test results were calculated.
(Falling from the rotarod earlier than controls is read as motor impairment.)

A short description of data set [1]: Survival, body weight and organ index during the in vivo experiment. Set-up: species or system mice. The conditions noted are these: HYP 20/40/80 mg/kg nasal, every 3 days, 8 weeks. On the procedure: All animal care and experimental procedures were performed in accordance with the “Institutional Animal Care and User Committee Guidelines” of the Macau University of Science and Technology. APP/PSEN1 (APP/PS1) mice (N000175) were purchased from the Nanjing Institute of Biomedical Sciences, Nanjing University, China, weighing 25 ± 5 g. The animals were housed in a temperature-controlled room with a 12 h light/dark cycle and given ad libitum food and water. Male mice were randomly divided into the following 6 experimental groups. (a) wild-type group (n = 6), (b) APP/PS1 group (n = 6), (c) HYP (20 mg/kg group) (n = 7), (d) HYP (40 mg/kg) group (n = 8), (e) HYP (80 mg/kg) group (n = 8) and (f) memantine (MEM) (10 mg/kg) positive control group (n = 8). HYP was dissolved in the solvent containing 10% DMSO, 40% PEG300 and 5% Tween-80 in PBS, and administrated via nasal injection for every 3 days with a volume of 0.5 μL/g of body weight for 8 consecutive weeks.

In another data set the test system is HT22 cells. As to the kind of experiment: ATP content measurement by LC-MS/MS. The conditions noted are these: Aβ aggregates with HYP 20, 40, 80 μM, 24 h. Type of data set: cell-based. On the procedure:
HT22 cells were co-treated with Aβ aggregates and HYP (20–80 μM) for 24 h and washed with PBS. Each digested sample was re-suspended in 10 mL of ice-cold PBS, followed by centrifugation for 5 min (300 g, 4 °C). Cell pellets were then treated with 85% cold methanol (2 × 10^6 cells / 100 μL) containing 2 μM ATP-^13C10,^15N5, then vortexed for 1 min and placed on ice for 10 min. After centrifugation (13,000 g) at 4 °C for 15 min, the supernatant was transferred into another tube. The derivatization reaction was initiated by adding 75 μL of derivatization reagent MTBSTFA into 200 μL of cell lysis with 85% methanol and completed over 5 min with consistent vortex. Derivatization samples were then centrifuged (13,000 g) at 4 °C for 10 min, and 25 μL of the supernatant was injected into LC-MS/MS system for analysis.

T1 sequence (P05067 672-713 limits assumed): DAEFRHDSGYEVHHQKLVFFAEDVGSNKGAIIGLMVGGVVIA

Usually pKd stands for the negative decadic logarithm of the Kd, by convention in mol/L. A higher pKd goes with a small Kd. With `O=c1c(O[C@@H]2O[C@H](CO)[C@H](O)[C@H](O)[C@H]2O)c(-c2ccc(O)c(O)c2)oc2cc(O)cc(O)c12` [HYP, Quercetin-3-O-β-D-galactopyranoside], the “Kids” value at Aβ aggregates (Fig. 1G, dissociation rate constant) was determined as 0.0343 s⁻¹. For the same compound, the pKd on Aβ aggregates (HYP 6.25–200 μM, biotinylated Aβ aggregate) is 4.84. The “mRNA transcriptional level of APP” value in the data set with APP is on record as “no significant effect”. Also, the “protein level of APP and APP-β” value with APP and APP-β was “reduced the protein level of both APP and APP-β”. The solubility in water entry in “Solubility in water” is “insoluble in water”. In the data set on APP/PS1 mice, the “motor ability (time retained on the rotating rod)” value was “improved after HYP treatment”. The “survival, body weight and organ index” value in data set [1] is recorded as “all mice survived without significant changes in body weight”. In addition, the ATP content result in the data set on HT22 cells is “rescued the Aβ-induced decrease in mitochondrial ATP”.
